Measurements taken from patent US12280040B2, “Compositions and methods of a dihydroisoxazole compound that reduces ectoparasite infestations on fish” (EVAH Atlantic Inc., priority 2023, dated 2025).

System: Lepeophtheirus salmonis
Assay: Duration of efficacy: medicated feed, then sea lice infestation of Atlantic salmon at 8 or 17 DPT (Example 2)
Type: in vivo
Settings: for percent efficacy for total sea lice, across counts: cohort infested at 8 DPT
Experimental: A randomized, blinded, parallel-group, negative-controlled study was conducted in which, the active ingredient was administered to Atlantic salmon at three dose rate (0 mg/kg/day, 0.025 mg/kg/day, and 0.060 mg/kg/day administered in medicated feed for 7 consecutive days. Following the treatment, the fish were intentionally infested with sea lice either 8 or 17 DPT, all within a controlled laboratory environment with seawater. The evaluation of efficacy for each cohort occurred at three specific timepoints post-infestation by comparing lice counts between the groups that received treatment and the untreated control groups.
Healthy Atlantic salmon post-smolts (n=1080) were selected for enrollment and distributed sequentially across eighteen (18) study tanks. Fish were weighed individually during the allocation of fish to tanks on study day (SD) −55&−56. Fish were weighed again on SD −19 to estimate the average weight of all fish and used to determine the feeding amount during the treatment period (SD 0−+6). The mean weight of fish prior to treatment was 716.1±152.5 g. Fish in the cohort infested 8 DPT were additionally weighed on SD +8, +14, +27, +35, +41 and +48. Fish in the cohort infested 17 DPT were additionally weighed on SD +8, +23, +36, +44, +50, and +57. For both cohorts SD 0 served as the first day of treatment.
Atlantic salmon post-smolts at each infestation time (8 or 17 DPT) were infested once with about 100 copepodids (Lepeophtheirus salmonis) per fish. During the study the water temperature varied between 9 and 13° C., and the water oxygen saturation was above 80%.
Three treatment groups were randomly assigned to eighteen study tanks by blocking the paired tank rows for the 8 and 17 DPT exposure. Study personnel were blinded as to the identity of the treatments for each tank.
Sea lice were counted three times during the study. […] The counts were strategically scheduled to ensure the presence of life stages, including chalimus, pre-adult, and adult stages, in at least one of the three counts within the negative control treatment. At all timepoints 10 fish were euthanized and lice counted.
Medicated feed was prepared by dry coating commercially available fish feed pellets with a premix containing the active ingredient to reach a content of about 4.2 and 10.0 mg/kg. The fish pellets were then coated with feed grade herring fish oil at an inclusion rate of about 0.75% w/w (7.5 g/kg feed) The consumption rate of the medicated feed was set to 0.6% body weight.
For the cohort infested at 8 DPT and the cohort infested at 17 DPT, treatment efficacy was computed for total number of sea lice/fish and total number of mobile life stages, i.e., preadult & adult sea lice/fish for each sea lice counting occasion (Count I, II & III). For the total number of attached/fish, treatment efficacy was computed at Count I only. Percent efficacy was computed using Abbott's formula for each treatment group compared to control as follows: percent efficacy=100*(MC−MT)/MC, where MC and MT are the arithmetic means of sea lice counts in the untreated control and S-roxapin-treated groups, respectively.
Treatments were considered efficacious when the percent efficacy was ≥90% for treated groups compared to untreated control groups. The mean sea lice abundance was reported for different parasite life stages (attached, mobile, and total (attached and mobile together)) and computed as the number of lice on salmon divided by the number of sampled fish per tank. The attached category included chalimus I & II stages. The mobile category included pre-adult and adult life stages of both males and females. The numbers of mobile, attached, and total lice were considered in this study.

[1] = 0.025 mg/kg/day in feed 7 d, infested 8 DPT, Count I (21DPI)
[2] = 0.025 mg/kg/day in feed 7 d, infested 8 DPT, Count III (34 DPI)
[3] = 0.025 mg/kg/day in feed 7 d, infested 17 DPT, Count I (21DPI)
[4] = 0.025 mg/kg/day in feed 7 d, infested 17 DPT, Count III (34 DPI)
[5] = 0.060 mg/kg/day in feed 7 d, infested 8 DPT, Count I (21DPI)
[6] = 0.060 mg/kg/day in feed 7 d, infested 8 DPT, Count III (34 DPI)
[7] = 0.060 mg/kg/day in feed 7 d, infested 17 DPT, Count I (21DPI)
[8] = 0.060 mg/kg/day in feed 7 d, infested 17 DPT, Count III (34 DPI)

C#CCNC(=O)CNC(=O)c1sc(C2=NO[C@@](c3cc(Cl)c(Cl)c(Cl)c3)(C(F)(F)F)C2)cc1C [S-roxapin, (S)-3-methyl-N-(2-oxo-2-(prop-2-yn-1-ylamino)ethyl)-5-(5-(3,4,5-trichlorophenyl)-5-(trifluoromethyl)-4,5-dihydroisoxazol-3-yl)thiophene-2-carboxamide]
Number of Attached Lice/Fish % Efficacy [1]: 92.5%
Number of Attached Lice/Fish Mean ± SD [1]: 1.6 ± 2.0 lice/fish
Number of Mobile Lice/Fish % Efficacy [1]: 87.2%
Number of Mobile Lice/Fish Mean ± SD [1]: 1.0 ± 1.3 lice/fish
Total Number of Lice/Fish % Efficacy [1]: 91.1%
Total Number of Lice/Fish Mean ± SD [1]: 2.6 ± 2.9 lice/fish
Number of Attached Lice/Fish Mean ± SD [2]: 0.0 ± 0.0 lice/fish
Number of Mobile Lice/Fish % Efficacy [2]: 91.8%
Number of Mobile Lice/Fish Mean ± SD [2]: 2.5 ± 2.8 lice/fish
Total Number of Lice/Fish % Efficacy [2]: 91.8%
Total Number of Lice/Fish Mean ± SD [2]: 2.5 ± 2.8 lice/fish
Number of Attached Lice/Fish % Efficacy [3]: 21.2%
Number of Attached Lice/Fish Mean ± SD [3]: 2.7 ± 1.9 lice/fish
Number of Mobile Lice/Fish % Efficacy [3]: −10.1%
Number of Mobile Lice/Fish Mean ± SD [3]: 24.4 ± 8.8 lice/fish
Total Number of Lice/Fish % Efficacy [3]: −5.9%
Total Number of Lice/Fish Mean ± SD [3]: 27.1 ± 9.0 lice/fish
Number of Attached Lice/Fish Mean ± SD [4]: 0.0 ± 0.0 lice/fish
Number of Mobile Lice/Fish % Efficacy [4]: −16.2%
Number of Mobile Lice/Fish Mean ± SD [4]: 32.1 ± 12.1 lice/fish
Total Number of Lice/Fish % Efficacy [4]: −16.0%
Total Number of Lice/Fish Mean ± SD [4]: 32.1 ± 12.1 lice/fish
percent efficacy for total sea lice, across counts (0.025 mg/kg/day): above 86.8%
efficacy for mobile lice (0.025 mg/kg/day, cohort infested at 17 DPT): no efficacy
efficacy for total sea lice (0.025 mg/kg/day, cohort infested at 17 DPT (printed: in DOE14)): No efficacy
Number of Attached Lice/Fish % Efficacy [5]: 99.8%
Number of Attached Lice/Fish Mean ± SD [5]: 0.0 ± 0.2 lice/fish
Number of Mobile Lice/Fish % Efficacy [5]: 99.6%
Number of Mobile Lice/Fish Mean ± SD [5]: 0.0 ± 0.2 lice/fish
Total Number of Lice/Fish % Efficacy [5]: 99.8%
Total Number of Lice/Fish Mean ± SD [5]: 0.1 ± 0.3 lice/fish
Number of Attached Lice/Fish Mean ± SD [6]: 0.0 ± 0.0 lice/fish
Number of Mobile Lice/Fish % Efficacy [6]: 100%
Number of Mobile Lice/Fish Mean ± SD [6]: 0.0 ± 0.0 lice/fish
Total Number of Lice/Fish % Efficacy [6]: 100%
Total Number of Lice/Fish Mean ± SD [6]: 0.0 ± 0.0 lice/fish
Number of Attached Lice/Fish % Efficacy [7]: 46.2%
Number of Attached Lice/Fish Mean ± SD [7]: 1.9 ± 1.6 lice/fish
Number of Mobile Lice/Fish % Efficacy [7]: 18.5%
Number of Mobile Lice/Fish Mean ± SD [7]: 18.0 ± 6.1 lice/fish
Total Number of Lice/Fish % Efficacy [7]: 22.3%
Total Number of Lice/Fish Mean ± SD [7]: 19.9 ± 6.1 lice/fish
Number of Attached Lice/Fish Mean ± SD [8]: 0.0 ± 0.0 lice/fish
Number of Mobile Lice/Fish % Efficacy [8]: 23.0%
Number of Mobile Lice/Fish Mean ± SD [8]: 21.3 ± 9.0 lice/fish
Total Number of Lice/Fish % Efficacy [8]: 23.1%
Total Number of Lice/Fish Mean ± SD [8]: 21.3 ± 9.0 lice/fish
percent efficacy for total sea lice, across counts (0.060 mg/kg/day): above 99.2%
